Results published in patent US9115159B2, “Phosphate compounds, a process for their preparation and pharmaceutical compositions containing them” (LES LABORATOIRES SERVIER, priority 2013, dated 2015).
Read-outs that look alike come from different tables or passages of the source.

Legend:
[1] = Solubility in aqueous medium buffered to physiological pH (phosphate 0.33M, pH 7.4); format: physicochemical; details: phosphate 0.33M, pH = 7.4
Protocol: The solubilities of the compounds were also measured in a medium buffered to physiological pH (cf. Table 3).

[2] = Pharmacokinetic profile / in vivo conversion after oral administration to SCID mice (plasma, LC-MS/MS); parameters: species or system female SCID mice; details: female, mouse, po, lipid formulation (PEG 300/ethanol/Phosal 50PG 30/10/60)
Protocol: The pharmacokinetic profile of the phosphate compounds of formula (I) is evaluated in a lipid formulation and in aqueous solution in female SCID mice. This is compared to the pharmacokinetic profile of compounds of formula (I′) in a lipid formulation. More specifically, 4-[{[3-(6-{[(3S)-3-(morpholin-4-ylmethyl)-3,4-dihydroisoquinolin-2(1H)-yl]-carbonyl}-1,3-benzodioxol-5-yl)-5,6,7,8-tetrahydroindolizin-1-yl]carbonyl}(phenyl)-amino]phenyl disodium phosphate (also referred to as the compound of Example 1) was tested and compared to N-(4-hydroxyphenyl)-3-{6-[((3S)-3-(4-morpholinylmethyl)-3,4-dihydro-2(1H)-isoquinolinyl)carbonyl]-1,3-benzodioxol-5-yl}-N-phenyl-5,6,7,8-tetrahydro-1-indolizine carboxamide (also referred to as the drug from Example 1).
The compound of Example 1 is prepared in a mixture of anhydrous ethanol/polyethylene glycol 300/water (10/40/50, v/v/v) intended for administration by the p.o. route. The study is carried out in 2 groups of SCID mice to which the compound of Example 1 is administered under the following conditions: • Group 1: 3 mg/kg p.o. (gavage, 10 mL/kg), • Group 2: 25 mg/kg p.o. (gavage, 10 mL/kg).
Blood samples are taken at the following points in time (3 samples per animal and 3 animals for each point in time): 0.25 hr, 0.5 hr, 1 hr, 2 hrs, 6 hrs and 24 hrs after oral administration.
The compound of Example 1 is also administered by the oral route in an aqueous medium to SCID mice, under the following conditions: • Group 1: 30 mg/kg p.o. dissolved in 1 mM sodium carbonate solution (gavage, 10 mL/kg), • Group 2: 100 mg/kg p.o. in water (gavage, 10 mL/kg).
Blood samples are taken at the following points in time (3 animals for each point in time and 1 sample per animal): 0.25 hr, 0.5 hr, 1 hr, 2 hrs, 4 hrs, 6 hrs and 24 hrs after oral administration.
For all formulations of the compound of Example 1, the blood thereby collected is centrifuged and the plasma is transferred to tubes containing 1M hydrochloric acid. The plasma concentrations of the phosphate compound (prodrug) and its hydroxylated homologue (drug) are determined simultaneously using a method of liquid chromatography coupled with mass spectrometric detection (TFC-LC-MS/MS). The limit of detection for both entities is 0.5 ng/mL.
The drug from Example 1 is prepared in a mixture of anhydrous ethanol/polyethylene glycol 300/water (10/40/50, v/v/v) intended for administration by the p.o. route. The study is carried out in several groups of SCID mice to which the drug from Example 1 is administered under the following conditions: • Group 1: 3 mg/kg p.o. (gavage, 10 mL/kg), • Group 2: 30 mg/kg p.o. (gavage, 10 mL/kg), • Group 3: 25 mg/kg p.o. (gavage, 10 mL/kg), • Group 4: 100 mg/kg p.o. (gavage, 10 mL/kg).
Blood samples are taken at the following points in time (3 animals for each point in time and 3 samples per animal for Groups 1-2 and 1 sample per animal for Groups 3 and 4): • p.o.: before administration and then 0.25 hr, 0.5 hr, 0.75 hr, 1 hr, 2 hrs, 4 hrs, 6 hrs, 8 hrs, 16 hrs and 24 hrs after oral administration at 3 and 30 mg/kg, • p.o.: 0.5 hr, 2 hrs, 6 hrs, 16 hrs and 24 hrs after oral administration at 25 mg/kg and 0.5 hr, 1 hr, 2 hrs, 6 hrs, 16 hrs, 30 hrs and 48 hrs after oral administration at 100 mg/kg.
The plasma from the blood samples collected after administration of the lipid formulations of the drug from the compound of Example 1 are analysed by liquid chromatography coupled with mass spectrometric detection. The limit of quantification of the drug from the compound of Example 1 is less than or equal to 0.5 ng/mL.
Non-compartmental pharmacokinetic analysis is carried out on the mean values of the plasma concentrations of the compounds tested. […]

[3] = In vitro test on human Caco-2 cells, cellular transport A to B; format: in vitro ADME; details: human, Caco-2, drug incubated and measured, A to B, 1 or 3 μM, read-out: Papp, the drug after incubation of the drug
Protocol: (§1) The cellular transport from A to B (Apical to Basolateral) of the phosphate compounds of formula (I) and the compounds of formula (I′) (corresponding drugs) is studied in human Caco-2 cells. Each compound is deposited apically at 1 or 3 μM (in duplicate) and then incubated for 120 minutes.
(§2) Several samples are taken during the experiment; • apically: immediately after deposition (t=0) and at 120 minutes • basolaterally: at the end of the experiment (120 minutes)
(§3) The concentrations of the phosphate compound (prodrug) and/or of its hydroxylated homologue (drug) are determined by liquid chromatography coupled with mass spectrometric detection (LC-MS/MS). The limit of quantification for both entities is 2 ng/mL.
(§4) The apparent permeability (Papp) and the predicted absorbed fraction (Fabs) in humans are calculated for the prodrug, for the drug after incubation of the prodrug and for the drug after incubation of the drug (Hubatsch et al, Nat Protoc. 2007; 2(9), 2111-2119).
(§5) The experiment yield, which corresponds to the ratio (in percent) of the total amount of compound found at the end of the experiment versus that incubated, is also calculated.

human Caco-2 cells = assay: as above; format: in vitro ADME; details: drug incubated and measured, 120 minutes; for Fabs (predicted absorbed fraction in humans), the drug after incubation of the drug: A to B, 1 or 3 μM
Protocol: as §1, §2, §3, §4, §5

SMILES | Solubility at 10 μM [1] | Solubility at 20 μM [1] | Solubility at 50 μM [1] | Solubility at 100 μM [1] | AUC(0-t) ([2]; Drug from Example 20 administered 3 mg/kg p.o., read-out: AUCt, compound measured: Drug from Example 20) [ng·h/mL] | Cmax ([2]; Drug from Example 20 administered 3 mg/kg p.o., read-out: Cmax, compound measured: Drug from Example 20) [ng/mL] | Tmax ([2]; Drug from Example 20 administered 3 mg/kg p.o., read-out: Tmax, compound measured: Drug from Example 20) [h] | AUC(0-t) ([2]; Drug from Example 20 administered 25 mg/kg p.o., read-out: AUCt, compound measured: Drug from Example 20) [ng·h/mL] | Cmax ([2]; Drug from Example 20 administered 25 mg/kg p.o., read-out: Cmax, compound measured: Drug from Example 20) [ng/mL] | Tmax ([2]; Drug from Example 20 administered 25 mg/kg p.o., read-out: Tmax, compound measured: Drug from Example 20) [h] | Papp A→B at 120 min [3] [×10⁻⁶ cm/s] | Yield (experiment yield), the drug after incubation of the drug (human Caco-2 cells) | Fabs (predicted absorbed fraction in humans), the drug after incubation of the drug (human Caco-2 cells) | AUC(0-t) ([2]; Drug from Example 25 administered 3 mg/kg p.o., read-out: AUCt, compound measured: Drug from Example 25) [ng·h/mL] | Cmax ([2]; Drug from Example 25 administered 3 mg/kg p.o., read-out: Cmax, compound measured: Drug from Example 25) [ng/mL] | Tmax ([2]; Drug from Example 25 administered 3 mg/kg p.o., read-out: Tmax, compound measured: Drug from Example 25) [h] | AUC(0-t) ([2]; Drug from Example 25 administered 25 mg/kg p.o., read-out: AUCt, compound measured: Drug from Example 25) [ng·h/mL] | Cmax ([2]; Drug from Example 25 administered 25 mg/kg p.o., read-out: Cmax, compound measured: Drug from Example 25) [ng/mL] | Tmax ([2]; Drug from Example 25 administered 25 mg/kg p.o., read-out: Tmax, compound measured: Drug from Example 25) [h]
Cc1c(N(C(=O)c2cc(-c3cc(Cl)ccc3C(=O)N3Cc4ccccc4C[C@H]3CN3CCOCC3)n(C)c2C)c2ccc(O)cc2)cc(C#N)n1C [Drug from Example 20, 5-(5-Chloro-2-{[(3S)-3-(morpholin-4-ylmethyl)-3,4-dihydroisoquinolin-2(1H)-yl]carbonyl}phenyl)-N-(5-cyano-1,2-dimethyl-1H-pyrrol-3-yl)-N-(4-hydroxyphenyl)-1,2-dimethyl-1H-pyrrole-3-carboxamide] | Soluble | Insoluble | Insoluble | Insoluble | 55 | 39 | 1 | 10200 | 5520 | 2 | 0.29 | Yield (%) = 91 | Fabs (%) = 25 | – | – | – | – | – | –
Cc1c(C(=O)N(c2ccc(O)cc2)c2cc(C#N)n(C)c2)cc(-c2cc(Cl)ccc2C(=O)N2Cc3ccccc3C[C@H]2CN2CCOCC2)n1C [Drug from Example 21, 5-(5-Chloro-2-{[(3S)-3-(morpholin-4-ylmethyl)-3,4-dihydroisoquinolin-2(1H)-yl]carbonyl}phenyl)-N-(5-cyano-1-methyl-1H-pyrrol-3-yl)-N-(4-hydroxyphenyl)-1,2-dimethyl-1H-pyrrole-3-carboxamide] | – | – | – | – | – | – | – | – | – | – | 0.27 | Yield (%) = 82 | Fabs (%) = 24 | – | – | – | – | – | –
C[C@@H]1Cc2ccccc2CN1C(=O)c1cc2c(cc1-c1cc(C(=O)N(c3ccc(O)cc3)c3cnc4c(ccn4C)c3)c3ccccn13)OCO2 [Drug from Example 4, N-(4-Hydroxyphenyl)-3-(6-{[(3R)-3-methyl-3,4-dihydroisoquinolin-2(1H)-yl]carbonyl}-1,3-benzodioxol-5-yl)-N-(1-methyl-1H-pyrrolo[2,3-b]pyridin-5-yl)-indolizine-1-carboxamide] | – | – | – | – | – | – | – | – | – | – | 0.21 | Yield (%) = 20 | Fabs (%) = 46 | – | – | – | – | – | –
C[C@@H]1Cc2ccccc2CN1C(=O)c1cc2c(cc1-c1cc(C(=O)N(c3ccncc3)c3ccc(O)cc3)c3ccccn13)OCO2 [Drug from Example 5, N-(4-Hydroxyphenyl)-3-(6-{[(3R)-3-methyl-3,4-dihydroisoquinolin-2(1H)-yl]-carbonyl}-1,3-benzodioxol-5-yl)-N-(pyridin-4-yl)indolizine-1-carboxamide] | – | – | – | – | – | – | – | – | – | – | 0.7 | Yield (%) = 34 | Fabs (%) = 68 | – | – | – | – | – | –
Cc1c(N(C(=O)c2cc(-c3cc(F)ccc3C(=O)N3Cc4ccccc4C[C@H]3CN3CCOCC3)n(C)c2C)c2ccc(O)cc2)cc(C#N)n1C [Drug from Example 25, N-(5-Cyano-1,2-dimethyl-1H-pyrrol-3-yl)-5-(5-fluoro-2-{[(3S)-3-(morpholin-4-ylmethyl)-3,4-dihydroisoquinolin-2(1H)-yl]carbonyl}phenyl)-N-(4-hydroxyphenyl)-1,2-dimethyl-1H-pyrrole-3-carboxamide] | Soluble | Soluble | Insoluble | Insoluble | – | – | – | – | – | – | 0.49 | Yield (%) = 100 | Fabs (%) = 40 | 37 | 33 | 1 | 5700 | 3000 | 1
